The source of these data is patent publication US4055553A, “(Gly3 -Ala)^1 -somatostatin” (American Home Products Corporation, priority 1975, dated 1977).

Molecules are shown by their SMILES.

One assay relates to growth hormone. The assay is described as follows: arginine-stimulated hormone release in Nembutal-anaesthetised rats, blood assayed for growth hormone. It counts as in vivo, albino male rats. The note with it: saline control 133 ± 15. Here is the method: (§1) The in vivo activity of the compounds of this invention was established by subjecting (Gly3 -Ala)^1 -Somatostatin, as a representative compound of this invention, to the following standard test procedure: three groups of nine albino male rats were arranged to provide a control group, a group for observation of Somatostatin activity as the standard and a group for the study of the test compound (Gly3 -Ala)^1 -Somatostatin. Nembutal (50 mg/kg) was injected intraperitoneally into each rat. Fifteen minutes later a subcutaneous injection of the test compound, somatostatin (200 μg/kg) and physiological saline was administered separately to each of the three groups of rats. Ten minutes later 0.5 milliliters of arginine (300 mg/ml, pH 7.2) was injected into the rats heart. The rats were decapitated five minutes later and their blood was collected in Trasylol® -EDTA. Aliquot samples were assayed for growth hormone, glucagon and/or insulin. The compound of this invention, selected as representative of the group of compounds disclosed for test pruposes, was employed in two distinct test procedures at the 100 μg/kg and 300 μg/kg dose levels.

The test system of a further assay is insulin. The assay can be described thus: arginine-stimulated hormone release in Nembutal-anaesthetised rats, blood assayed for insulin. In kind it is in vivo, albino male rats. Here is the method: as §1
The test system of the next assay is glucagon. The assay is described as follows: arginine-stimulated hormone release in Nembutal-anaesthetised rats, blood assayed for glucagon. In kind it is in vivo, albino male rats. As to the method:
as §1

Assay [1] deals with growth hormone, glucagon and/or insulin. The assay can be described thus: standard in vivo test procedure, overall activity compared with somatostatin. On the set-up: species or system albino male rats. As to conditions: at the 100 and 300 μg/kg dose levels. Here is the method:
as §1

In the case of `C[C@H](NC(=O)CNC(=O)CNC(=O)CN)C(=O)NCC(=O)N[C@H]1CSSC[C@@H](C(=O)O)NC(=O)[C@H](CO)NC(=O)[C@H]([C@@H](C)O)NC(=O)[C@H](Cc2ccccc2)NC(=O)[C@H]([C@@H](C)O)NC(=O)[C@H](CCCCN)NC(=O)[C@H](Cc2c[nH]c3ccccc23)NC(=O)[C@H](Cc2ccccc2)NC(=O)[C@H](Cc2ccccc2)NC(=O)[C@H](CC(N)=O)NC(=O)[C@H](CCCCN)NC1=O` [(Gly3 -Ala)^1 -Somatostatin, glycyl-glycyl-glycyl-L-alanylglycyl-L-cysteinyl-L-lysyl-L-asparaginyl-L-phenylalanyl-L-phenylalanyl-L-tryptophyl-L-lysyl-L-threonyl-L-phenylalanyl-L- threonyl-L-seryl-L-cysteine cyclic (6→.intg.) disulfide, triacetate], the GH with growth hormone (second test, test compound 300 μg/kg subcutaneous) was found to be 27 ± 7 ng/mL. Besides, the Insulin with insulin (first test, test compound 100 μg/kg subcutaneous, arginine intracardiac 10 min later, blood 5 min after arginine, saline control 199 ± 15) worked out at 130 ± 14 μ units/ml; with insulin (second test, test compound 300 μg/kg subcutaneous, saline control 165 ± 13), 104 ± 10 μ units/ml. Further, the Glucagon amounted to 0.5 ± 0.1 picograms/ml in the assay with glucagon (first test, test compound 100 μg/kg subcutaneous, arginine intracardiac 10 min later, blood 5 min after arginine, saline control 6.4 ± 1.5) and 1.4 ± 0.7 picograms/ml with glucagon (second test, test compound 300 μg/kg subcutaneous, saline control 4.2 ± 0.6). Further, in assay [1], the “activity relative to somatostatin itself” value is on record as “comparable in activity”.
Take `C[C@H](N)C(=O)NCC(=O)N[C@H]1CSSC[C@@H](C(=O)O)NC(=O)[C@H](CO)NC(=O)[C@H]([C@@H](C)O)NC(=O)[C@H](Cc2ccccc2)NC(=O)[C@H]([C@@H](C)O)NC(=O)[C@H](CCCCN)NC(=O)[C@H](Cc2c[nH]c3ccccc23)NC(=O)[C@H](Cc2ccccc2)NC(=O)[C@H](Cc2ccccc2)NC(=O)[C@H](CC(N)=O)NC(=O)[C@H](CCCCN)NC1=O` [Somatostatin]: in the assay on growth hormone (second test (run beside the 300 μg/kg group), somatostatin standard 200 μg/kg subcutaneous), the GH was 12 ± 2 ng/mL. Besides, the Insulin with insulin (first test (run beside the 100 μg/kg group), somatostatin standard 200 μg/kg subcutaneous, saline control 199 ± 15) was 202 ± 29 μ units/ml; in the assay on insulin (second test (run beside the 300 μg/kg group), somatostatin standard 200 μg/kg subcutaneous, saline control 165 ± 13), 115 ± 11 μ units/ml. Further, the Glucagon with glucagon (first test (run beside the 100 μg/kg group), somatostatin standard 200 μg/kg subcutaneous, saline control 6.4 ± 1.5) is listed as 1.5 ± 0.8 picograms/ml; with glucagon (second test (run beside the 300 μg/kg group), somatostatin standard 200 μg/kg subcutaneous, saline control 4.2 ± 0.6), 1.6 ± 0.9 picograms/ml.
